Laboratory results published in patent US20040058310A1 (priority 2002, published 2004).
Read-outs that look alike come from different tables or passages of the source.

Experiments:
PMN nicotinic receptors [1] = assay: saturation of specific [125I]-α-bungarotoxin binding to smokers' polymorphonuclear leukocytes; set-up: species or system human
Method: FIG. 1: Saturation of specific [^3H]-epibatidine (A) and [^125I]-α-bungarotoxin (B) binding to human polymorphonuclear cells. Insets, Scatchard analyses of specific binding of [^3H]-epibatidine and [^125I]-α-bungarotoxin (1 pM to 10 nM). […] Data are the mean± standard error of three experiments.
Saturation studies were conducted with increasing concentrations of [^3H]-epibatidine (1 pM-10 nM) and [^125I]-α-bungarotoxin (1 pM-10 nM). […] Following the binding reactions, bound and free ligands were separated by rapid vacuum filtration through Whatman GF/B fiberglass filters (Polylabo) treated with ice-cold buffer (KH2PO4 5 mM, Na2HPO4 20 mM, NaCl 100 mM, pH 7.4) containing 0.1% milk. The filters were rinsed three times with 5 ml of the same ice-cold buffer and placed in vials with 4 ml of Picofluor 30 scintillation liquid (Packard Instrument). The radioactivity was determined by liquid scintillation counting.
Smokers' polymorphonuclear leukocytes (n=3) were used to investigate saturation experiments.

PMN nicotinic receptors [2] = assay: [125I]-α-bungarotoxin binding sites in PMN of smokers and non-smokers; set-up: species or system human
Method: (§1) FIG. 2: [^3H]-epibatidine (A) and [^125I]-α-bungarotoxin (B) binding sites in human polymorphonuclear cells isolated from smokers (n=90 and 60, respectively) and non-smokers (n=50). Binding levels were measured at 10 nM of [^3H]-epibatidine and [^125I]-α-bungarotoxin. Nonspecific binding was determined in the presence of 1 μM or 100 μM of nicotine, respectively.
(§2) Human polymorphonuclear leukocytes were isolated according to a slightly modified version of the method described by Cabanis (Cabanis, Gressier et al. 1994). Briefly, 20 ml of fresh heparinized blood were diluted with an equal amount of phosphate-buffered saline (PBS) 0.1 M, pH 7.4, and placed above 10 ml of Histopaque-1077. After centrifugation at 400 g for 30 min, the pellet was resuspended in 40 ml of cold isotonic ammonium chloride solution (NH4Cl 0.15 M, NaHCO3 10 mM). Following 20 min at 4° C., the cell suspension was centrifuged at 160 g for 10 minutes, and the white pellets were washed twice in 10 ml of Hank's buffer. The protein content was measured using the method developed by Lowry et al. (Lowry et al. 1951).
Binding assays were performed on intact purified PMN. Cellular protein (100 μg) was incubated with 10 nM [^3H]-epibatidine for 30 min. or with [^125I]-α-bungarotoxin for 60 min at 25° C. in a volume of 100 μl. […]

[3] = system: human polymorphonuclear cells
[4] = system: human polymorphonuclear cells; remark: listed apart in the source
[5] = biological target: nicotinic acetylcholine receptors; settings: cited from earlier work
Normal B lymphocytes = assay: total epibatidine-binding sites in B lymphocytes; settings: mean and standard error of three independent experiments
Excerpt: (§3) The presence of nAChRs in B lymphocytes was further confirmed by studying the [^3H]-epibatidine and [^125I]-α-bungarotoxin binding. Epibatidine is a potent agonist of heteromeric nAChRs, while -α-bungarotoxin (α-Bgt) binds to both muscle-type nAChRs and homomeric neuronal-type of nAChRs. In addition, epibatidine penetrates inside the cell and binds both surface and intracellular receptors, while α-Bgt, when tested at ice-cold temperature, binds only surface-expressed receptors. Normal B lymphocytes and […] X63-Ag8 cells contained almost equal amounts of total epibatidine-binding sites per cell (12,220±3,200 and 10,170±1,100, respectively, means and standard error of three independent experiments).

PMN nicotinic receptors [6] = assay: saturation of specific [3H]-epibatidine binding to smokers' polymorphonuclear leukocytes; set-up: species or system human
Method: Insets, Scatchard analyses of specific binding of [^3H]-epibatidine and [^125I]-α-bungarotoxin (1 pM to 10 nM). Nonspecific binding was determined in the presence of 1 μM or 100 μM of nicotine respectively. Data are the mean± standard error of three experiments.
as §2
(§4) Binding assays were performed on intact purified PMN. Cellular protein (100 μg) was incubated with 10 nM [^3H]-epibatidine for 30 min. or with [^125I]-α-bungarotoxin for 60 min at 25° C. in a volume of 100 μl. Specific binding was defined as the difference between total binding and binding in the presence of 1 μM or 100 μM nicotine, performed in triplicate.
Saturation studies were conducted with increasing concentrations of [^3H]-epibatidine (1 pM-10 nM) and [^125I]-α-bungarotoxin (1 pM-10 nM). Specific binding was defined as the difference between total binding and binding in the presence of 1 μM or 100 μM nicotine, respectively, performed in triplicate. Following the binding reactions, bound and free ligands were separated by rapid vacuum filtration through Whatman GF/B fiberglass filters (Polylabo) treated with ice-cold buffer (KH2PO4 5 mM, Na2HPO4 20 mM, NaCl 100 mM, pH 7.4) containing 0.1% milk. The filters were rinsed three times with 5 ml of the same ice-cold buffer and placed in vials with 4 ml of Picofluor 30 scintillation liquid (Packard Instrument). The radioactivity was determined by liquid scintillation counting.
Binding experiments were investigated in smokers' polymorphonuclear leukocyte cells in presence of various concentrations of [^3H]-epibatidine ranging from 0.1 nM to 25 nM.
For each experiment, the mean values of RCR or percentages were compared in a one-way analysis of variance and a Dunneft test. EC50 was calculated by non-linear regression fit of effect-concentration (C) curve to the equation: E=(Emax×C)/(C+EC50), where Emax and EC50 are the maximal efficiency and the concentration producing 50% effect respectively, using commercially available software (Micropharm®) (Urien 1995). Data from binding experiments were analysed by means of non-linear regression with commercially available software (Micropharm®) (Urien 1995).

[7] = hot plate assay; cited from earlier work
[8] = in vivo; cited from earlier work
opioid receptor = settings: cited from earlier work
PMN nicotinic receptors [9] = assay: [3H]-epibatidine binding sites in PMN of smokers and non-smokers; set-up: species or system human
Method: as §1, §2, §4
Nicotinic receptor binding sites in PMN were investigated from 90 smokers and 50 non-smokers. Participating smokers were recruited from the Centre de Tabacologie, Hôpital A. Chenevier, Créteil.

melanoma X63-Ag8 cells = assay: total epibatidine-binding sites in X63-Ag8 cells; settings: mean and standard error of three independent experiments
Excerpt: as §3

Method for α3, α4 and β2 subunits: Total RNA was isolated from smokers and non-smokers (TRIZOL, Gibco). First strand cDNA synthesis reactions were performed after annealing 5 μg of total RNA with 100 ng random hexamers (70° C. for 10 minutes) by incubation at 42° C. for 50 minutes. Polymerase chain reactions were carried out in a 20 μl reaction volume containing 1 μl cDNA product, 250 ng of both forward and reverse primers (Table 1), 5 units of Taq polymerase then cycled 30 times at 95° C. for 1 minute, 55° C. for 1 minute and 72° C. for 2 minutes. The amplified DNA products were analysed by agarose gel electrophoresis and stained with ethidium bromide. The PCR products were transferred from the gel to Hybond-N^+ membranes (Amersham) and hybridised with a ^32P-end-labelled oligoprobe (Table 1). Southern blot hybridizations were performed overnight at 42° C. in hybridisation buffer (5×SSC, 1× Denhardt's, 20 mM sodium phosphate buffer pH 6.5, 0.1% SDS, 100 μg/ml tRNA). The Southern blots were washed for 1 hour at room temperature in 2×SSC and 1% SDS, then exposed to X-ray film (Kodak Biomax) overnight with an intensifying screen.

## [^125I]-α-bungarotoxin
PMN nicotinic receptors [1]
  Bmax: 189.46±126.27 fmol/mg proteins
  nH (Scatchard plot linearity): 1.08±0.06
PMN nicotinic receptors [1]; read-out: apparent Kd
  Kd: 2770 ± 1540 pM
PMN nicotinic receptors [2]
  PMN tested that demonstrated binding sites: Approximately 30%
  binding sites in smokers compared with non-smokers: No difference

## CN1CCCC1c1cccnc1 (stereo not shown) [nicotine]
[3]
  Bmax of [3H]-epibatidine binding sites after nicotine: 34.66±6.25 fmol/mg protein
  formation of [3H]-epibatidine binding sites: induced the formation
  increase of the number of [3H]-epibatidine binding sites: 2.67 fold
  number of [3H]-epibatidine binding sites after nicotine: 29.19±10.28 fmol/mg protein
[4]
  change in the binding of [125I]-α-bungarotoxin to PMN: no change
[5]
  Ki: 1010 pM
α3, α4 and β2 subunits
  nAChR subunit expression after ex-vivo nicotine exposure: induced expression of α3, α4 and β2 subunits

## CNC1(C)C2CCC(C2)C1(C)C (stereo not shown) [mecamylamine]
[5]; noncompetitive nicotinic antagonist
  blockade of epibatidine binding to nicotinic acetylcholine receptors: can be blocked

## Clc1ccc(C2CC3CCC2N3)cn1 (stereo not drawn) [epibatidine, exo-2(6-chloro-3-pyridyl)-7-azabicyclo[2.2.1]-heptane]
Normal B lymphocytes
  total epibatidine-binding sites per cell: 12,220±3,200 sites per cell
PMN nicotinic receptors [6]; biphasic Scatchard plot
  Hill coefficient: 0.76
PMN nicotinic receptors [6]; first site
  Bmax1, high affinity site: 46.97±5.64 fmol/mg protein
  share of the total binding sites, high affinity site: 86.86%
PMN nicotinic receptors [6]; first site, read-out: Kd2, high affinity site
  Kd: 2110 ± 430 pM
PMN nicotinic receptors [6]; second site
  Bmax1, very high affinity site: 7.73±0.64 fmol/mg protein
  share of the total binding sites, very high affinity site: 14.14%
PMN nicotinic receptors [6]; second site, read-out: Kd1, very high affinity site
  Kd: 56.3 ± 27.8 pM
[5]; nAChR, restated in pM
  Ki: ~55 pM
[5]; nAChR
  Ki: 43 to 55 pM
[7]
  analgesic effect compared with morphine: approximately 200 times higher than morphine
[8]
  eliciting the Straub-tail response compared with morphine: approximately 500 fold that of morphine
Opioid receptor
  affinity for the opioid receptor: 1/8000
PMN nicotinic receptors [9]; 50 non-smokers, listed as [^3H]-epibatidine
  binding sites in non-smokers' PMN: not present and None
PMN nicotinic receptors [9]; 90 smokers
  smokers with detected binding sites: 82%
PMN nicotinic receptors [9]; PMN of smokers, 10 nM radioligand
  total number of binding sites in smokers: 40.65±4.89 fmol/mg protein
Melanoma X63-Ag8 cells
  total epibatidine-binding sites per cell: 10,170±1,100 sites per cell

## Cc1cc([C@H]2C[C@@H]3CC[C@H]2N3)on1 [epiboxidine]
[5]; nAChR
  Ki: 600 pM
